Values of other authors as cited in US12630850B2, “Enzymatic break down of chlorogenic acid in sunflower-containing products” (Chapman University, priority 2022, dated 2026).

Columns and labels:
[1] = Kabir et al., 2014; cited from earlier work
[2] = Lai et al., 2009; cited from earlier work
[3] = p-nitrophenyl acetate, between 20° C. and 40° C.; cited from earlier work

In the case of O=C(O)/C=C/c1ccc(O)c(O)c1 [caffeic acid], the pKa [1] is listed as 4.5.

In the case of O=C(O)[C@]1(O)C[C@@H](O)[C@@H](O)[C@H](O)C1 [quinic acid], the pKa [1] is given as 3.4.

In the case of O=C(/C=C/c1ccc(O)c(O)c1)O[C@@H]1C[C@](O)(C(=O)O)C[C@@H](O)[C@H]1O [CGA, Chlorogenic acid], the pKa [1] is given as 3.6.

B1: L. johnsonii: CGA esterase from L. johnsonii (Lai et al., 2009) (protein, listed as Lactobacillus johnsonii)
chain: MATTITLERDGLQLVGTREEPFGEIYDMAIIFHGFTANRNTSLLKEIANSLRDENIASVRFDFNGHGDSDGKFENMTVLNEIEDANAILNYVKTDPHVRNIYLVGHSQGGVVASMLAGLYPDLIKKVVLLAPAATLKSDALEGNTQGVTYNPDHIPDRLPFKDLTLGFYLRIAQQLPIYEVSAQFTKPVCLIHGTDDTWSPNASKKYDQIYQNSTLHLIEGADHCFSDSYQKNAVNLTTDFLQNNNAF
In the case of B1, the Km [2] is given as 53 µM.

B2: L. gasseri: CGA esterase from the bacterium L. gasseri (Fritsch et al., 2017) (protein, listed as Lactobacillus gasseri)
chain: MKLKKKKVGIYMATITIERDGLNLVGTREEPFGEIYDMAIIFHGFTANRNTPLLKEIADELRDENIASVRFDFNGHGDSDGKFENMTVLNEIEDANAILNYVKTDPHVRNIYLVGHSQGGVVASMLAGLYPDIIKKVVLLAPAATLKTDALNGSTQGVKYNPDHIPDRLPFKDLTLGFYLRIAQQLPIYEVSVHFTRPVCLIHGANDTWSPDASKKYDQVYENSTLHLVEGADHSFTDTYQKTAADLTAEFLQDNNTF
In the case of B2, the Temperature-dependence of activity [3] is given as “very weak temperature-dependence”.
